Here are results for 14 compounds from ChEMBL document CHEMBL5390238, “The mechanisms of multidrug resistance of breast cancer and research progress on related reversal agents” (Bioorg Med Chem, 2023).

pIC50: −log10 of the molar value.

For one data set, the system named is HaCaT. Briefly: Cytotoxicity against human HaCaT cells incubated for 72 hrs by MTT assay. The class given is functional, cell-based.
Another data set concerns HepG2. The experiment in a line: Antiproliferative activity against human HepG2 cells assessed as inhibition of cell growth incubated for 48 hrs by MTT assay. The settings on record: HepG2, 48 h. It is filed as functional, cell-based.
In a further data set the test system is HeLa. The experiment in a line: Antiproliferative activity against human HeLa cells assessed as inhibition of cell growth incubated for 72 hrs by MTT assay. It is filed as functional, cell-based. (In general: Formazan colour is commonly taken as a measure of viable cells.)
The test system of a further data set is HCT-116. The experiment in a line: Cytotoxicity against human HCT-116 cells assessed as cell viability measured as mitochondrial NADH-dependent dehydrogenase activity incubated for 72 to 120 hrs. It is filed as functional, cell-based.
Data set [1] concerns MCF7. Briefly: Antiproliferative activity against human MCF-7 cells assessed as inhibition of cell growth incubated for 48 hrs by MTT assay. It is filed as functional, cell-based. The settings on record: MCF7, 48 h.
Data set [2] relates to MCF7. The experiment in a line: Cytotoxicity against human MCF7 cells. It is filed as functional, cell-based.
The next data set concerns MDA-MB-231. Briefly: Antiproliferative activity against human MDA-MB-231 cells assessed as cell growth inhibition. It is filed as functional.
The test system of data set [3] is MCF7. Briefly: Antiproliferative activity against human MCF-7 cells assessed as cell growth inhibition. It is filed as functional.
Data set [4] can be described thus: Antiproliferative activity against human MCF7/BUS cells assessed as cell growth inhibition incubated for 6 days by MTT assay. The class given is functional, cell-based. The note with it: 144 h.
In another data set the target is T1, Estrogen receptor (Homo sapiens, UniProt P03372).
T1 sequence (P03372 whole entry): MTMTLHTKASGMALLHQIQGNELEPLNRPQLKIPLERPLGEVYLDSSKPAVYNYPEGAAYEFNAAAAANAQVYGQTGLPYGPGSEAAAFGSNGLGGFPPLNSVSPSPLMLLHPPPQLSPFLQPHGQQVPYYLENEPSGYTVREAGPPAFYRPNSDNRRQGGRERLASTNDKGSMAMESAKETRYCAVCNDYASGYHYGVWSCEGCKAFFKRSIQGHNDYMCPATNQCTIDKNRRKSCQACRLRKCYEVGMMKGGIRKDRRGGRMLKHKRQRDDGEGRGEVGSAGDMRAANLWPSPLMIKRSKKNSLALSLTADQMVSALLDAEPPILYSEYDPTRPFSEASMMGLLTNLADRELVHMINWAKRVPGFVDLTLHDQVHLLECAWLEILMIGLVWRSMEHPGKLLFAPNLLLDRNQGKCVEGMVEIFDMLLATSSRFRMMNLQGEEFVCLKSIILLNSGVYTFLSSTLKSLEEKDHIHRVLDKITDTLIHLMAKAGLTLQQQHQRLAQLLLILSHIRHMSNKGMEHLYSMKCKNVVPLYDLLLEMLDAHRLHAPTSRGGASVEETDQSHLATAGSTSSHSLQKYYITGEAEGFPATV
Briefly: Inhibition of human ERalpha expressed in Saccharomyces cerevisiae co-expressing lacZ using CPRG as substrate incubated for 48 hrs by Colorimetric assay.

The nature of data set [5]: Cytotoxicity against human RL14 cells incubated for 72 hrs by resazurin blue assay. The class given is toxicity, cell-based. (Resazurin is reduced to fluorescent resorufin, in cell work by metabolically active cells.)
The next data set relates to NCI/ADR-RES. Briefly: Cytotoxicity against human MCF7ADR cells. It is filed as functional, cell-based.
The subject of data set [6] is MCF7. The experiment in a line: Cytotoxicity against human MCF7 cells assessed as inhibition of cell growth in presence of paclitaxel by MTT assay. It is filed as functional, cell-based.
The nature of data set [7]: Antiproliferative activity against multidrug resistant human MDA-MB-231/TxR cells assessed as inhibition of cell growth preincubated for 24 hrs followed by taxol treatment for 24 hrs by MTT assay. It is filed as functional, cell-based.

The term pIC50 denotes −log10 of the IC50, conventionally taken in molar units. For orientation: GI50 means the concentration at which growth is held to half of that of the control. What is called IC50 is the concentration at which inhibition is half-maximal. High values mean a need for much substance, low ones inhibition by little substance.

For the compound `COc1cc(/C=C/c2ccc(SC)cc2)cc(OC)c1`, the pIC50 in the data set on HaCaT was 4.60.

In the case of `COc1cc([C@H]2OC[C@H]3[C@@H]2CO[C@@H]3c2ccc(O)c(OC)c2)ccc1O`, the pIC50 in the data set with HepG2 was 7.29.

As to `Cc1nc(C)c(COC(=O)[C@]23CCC(C)(C)C[C@H]2C2=CC[C@@H]4[C@@]5(C)CC[C@H](OC(=O)CN)C(C)(C)[C@@H]5CC[C@@]4(C)[C@]2(C)CC3)nc1C`, the pIC50 in the data set on HeLa is 5.49.

Consider `COc1ccc(/C(C#N)=C/c2ccc(N3CCC(O)CC3)s2)cc1OC`, for which the pIC50 in the data set on HCT-116 is 8.00.

In the case of `CCNCc1ccccc1[Se][Se]c1ccccc1CNCC`, the pIC50 with MCF7 [1] was 7.82.

With `CO[C@]1(CC[C@H](C)CO[C@@H]2O[C@H](CO)[C@@H](O)[C@H](O)[C@H]2O)O[C@H]2C[C@H]3[C@@H]4CC[C@@H]5C[C@@H](O[C@@H]6O[C@H](CO)[C@H](O[C@@H]7O[C@H](CO)[C@@H](O)[C@H](O[C@@H]8OC[C@@H](O)[C@H](O)[C@H]8O)[C@H]7O[C@@H]7O[C@H](CO)[C@H](O)[C@H](O)[C@H]7O)[C@H](O)[C@H]6O)CC[C@]5(C)[C@H]4CC[C@]3(C)[C@H]2[C@@H]1C`, the pIC50 with MCF7 [2] was 8.28.

As to `CCC(Cc1ccccc1)=C(c1ccc(OCCN2CCCC2)cc1)c1ccc(OC(=O)NCc2ccccc2)cc1`, the figures for the GI50 in the data set on MDA-MB-231 and in the data set with MCF7 [3] were 1840 nM and 90 nM, respectively.

On to `CCC(Cc1ccc(OC)cc1)=C(c1ccc(O)cc1)c1ccc(OCCCN(C)C)cc1`, for which the pIC50 was 7.02 in [4] and 6.29 on Estrogen receptor.

In data set [5], `COc1cccc2c1C(=O)c1c(O)c3c(c(O)c1C2=O)C[C@@](O)(C(=O)CO)C[C@@H]3O[C@H]1C[C@H](NC(=O)CNC(=O)Oc2ccc(C3=C(O)C(=O)C4C(O)=CC(O)=CC4O3)cc2O)[C@H](O)[C@H](C)O1` (stereo partly specified) had a half-maximal inhibitory concentration (IC50) at 72 h of 5 nM.

Take `O=c1cc(-c2ccc(O)cc2)oc2cc(O)cc(O)c12` [APIGENIN]: the pIC50 in the data set on NCI/ADR-RES was 6.70.

Consider `COc1cc(/C=C/C(=O)CC(=O)/C=C/c2ccc(O)c(OC)c2)ccc1O` [CURCUMIN], for which, in the data set with MCF7 [6], the pIC50 is 7.06.

Consider `Oc1ccc(/C=C/c2cc(O)cc(O)c2)cc1` [RESVERATROL], for which, in the data set with HaCaT, the pIC50 is 3.74.

Regarding `CC/C(=C(\c1ccccc1)c1ccc(OCCN(C)C)cc1)c1ccccc1` [TAMOXIFEN], the pIC50 in [4] was 6.30.

For the compound `CC(C)=CCC[C@@H](C(=O)O)[C@H]1CC[C@@]2(C)C3=C(CC[C@]12C)[C@@]1(C)CC[C@H](O)C(C)(C)[C@@H]1CC3` [TRAMETENOLIC ACID], the pIC50 in data set [7] was 6.99.
